Results on eleven compounds are retold here after US20250059171A1 (Hoffmann-La Roche Inc., priority 2021, published 2025).

Assay [1] addresses HCoV-229E 3CLpro (Human coronavirus 229E, UniProt P0C6X1). In words: HCoV-229E 3CLpro inhibition assay (FRET). Type of assay: biochemical.
Assay [2] has as its target MERS-CoV 3CLpro (Middle East respiratory syndrome-related coronavirus, UniProt K9N7C7). Put plainly: biochemical.
The target of assay [3] is SARS-CoV 3CLpro (Severe acute respiratory syndrome coronavirus, UniProt P0C6X7). Put plainly: biochemical.
The target in assay [4] is SARS-CoV-2 3CLpro (Severe acute respiratory syndrome coronavirus 2, UniProt P0DTD1). Put plainly: biochemical.

Sequence of HCoV-229E 3CLpro (P0C6X1 2966-3267): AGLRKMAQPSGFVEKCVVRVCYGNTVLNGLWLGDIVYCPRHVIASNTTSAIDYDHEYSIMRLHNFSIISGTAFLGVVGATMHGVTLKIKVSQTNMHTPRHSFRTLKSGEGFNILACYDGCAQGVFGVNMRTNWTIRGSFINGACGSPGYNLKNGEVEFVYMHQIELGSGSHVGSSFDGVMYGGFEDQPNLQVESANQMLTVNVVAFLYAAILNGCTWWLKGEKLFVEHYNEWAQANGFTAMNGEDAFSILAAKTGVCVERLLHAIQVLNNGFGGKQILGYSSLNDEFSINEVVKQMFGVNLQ
Sequence of MERS-CoV 3CLpro (K9N7C7 3248-3553): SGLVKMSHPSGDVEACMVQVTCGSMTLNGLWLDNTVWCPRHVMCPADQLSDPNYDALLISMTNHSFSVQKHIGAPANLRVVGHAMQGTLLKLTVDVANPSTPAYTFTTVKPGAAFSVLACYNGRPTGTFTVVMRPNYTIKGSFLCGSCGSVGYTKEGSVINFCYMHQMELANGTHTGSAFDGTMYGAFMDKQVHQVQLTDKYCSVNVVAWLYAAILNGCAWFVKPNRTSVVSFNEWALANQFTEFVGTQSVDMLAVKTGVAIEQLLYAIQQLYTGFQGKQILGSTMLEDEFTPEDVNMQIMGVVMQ

For `CC(C)(C)[C@H](NC(=O)[C@H]1CC1(F)F)C(=O)N1C[C@@H]2CCC[C@@H]2[C@H]1C(=O)NN(C[C@@H]1CCNC1=O)C(=O)[C@@H](F)Cl` [Example 104, (1R)—N-[(1S)-1-[(3S,3aS,6aR)-3-[[[(2S)-2-chloro-2-fluoro-acetyl]-[[(3S)-2-oxopyrrolidin-3-yl]methyl]amino]carbamoyl]-3,3a,4,5,6,6a-hexahydro-1H-cyclopenta[c]pyrrole-2-carbonyl]-2,2-dimethyl-propyl]-2,2-difluoro-cyclopropanecarboxamide], the half-inhibitory concentration (IC50) in assay [1] amounted to 55 nM; in assay [2], 128 nM; in assay [3], 20 nM; in assay [4] it was 12 nM.

As for `CC(C)(C)[C@H](NC(=O)[C@@H]1CC1(F)F)C(=O)N1C[C@@H]2CCC[C@@H]2[C@H]1C(=O)NN(C[C@@H]1CCNC1=O)C(=O)[C@H](F)Cl` [Example 99, (1S)—N-[(1S)-1-[(3S,3aS,6aR)-3-[[[(2R)-2-chloro-2-fluoro-acetyl]-[[(3S)-2-oxopyrrolidin-3-yl]methyl]amino]carbamoyl]-3,3a,4,5,6,6a-hexahydro-1H-cyclopenta[c]pyrrole-2-carbonyl]-2,2-dimethyl-propyl]-2,2-difluoro-cyclopropanecarboxamide], the half-maximal inhibitory concentration (IC50) came out at 30 nM in assay [1], 81 nM in assay [2], 12 nM in assay [3] and 8 nM in assay [4].

For the compound `CC1(C)C[C@@H](C(=O)NN(C[C@@H]2CCNC2=O)C(=O)[C@H](F)Cl)N(C(=O)[C@@H](NC(=O)C2CC2)C(C)(C)C)C1` [Example 26, N-[(1S)-1-[(2S)-2-[[[(2R)-2-chloro-2-fluoro-acetyl]-[[(3S)-2-oxopyrrolidin-3-yl]methyl]amino]carbamoyl]-4,4-dimethyl-pyrrolidine-1-carbonyl]-2,2-dimethyl-propyl]cyclopropanecarboxamide], the IC50 stood at 28 nM in assay [1], 98 nM in assay [2], 21 nM in assay [3] and 12 nM in assay [4].

On to `CCC(CC)[C@H](NC(=O)C(F)(F)F)C(=O)N1C[C@@H]2CCC[C@@H]2[C@H]1C(=O)NN(C[C@@H]1CCNC1=O)C(=O)[C@H](F)Cl` [Example 77, N-[(1S)-1-[(3S,3aS,6aR)-3-[[[(2R)-2-chloro-2-fluoro-acetyl]-[[(3S)-2-oxopyrrolidin-3-yl]methyl]amino]carbamoyl]-3,3a,4,5,6,6a-hexahydro-1H-cyclopenta[c]pyrrole-2-carbonyl]-2-ethyl-butyl]-2,2,2-trifluoro-acetamide], for which the IC50 in assay [1] amounted to 28 nM; in assay [2], 69 nM; in assay [3], 12 nM; in assay [4] it was 7 nM.

Turning to `CC(F)C(=O)N[C@H](C(=O)N1C[C@@H]2CCC[C@@H]2[C@H]1C(=O)NN(C[C@@H]1CCNC1=O)C(=O)[C@H](F)Cl)C(C)(C)C` (mixture of isomers) [Example 36, Rac-2-fluoro-N-[(1S)-2,2-dimethyl-1-[(3S,3aS,6aR)-3-[[[(2R)-2-chloro-2-fluoro-acetyl]-[[(3S)-2-oxopyrrolidin-3-yl]methyl]amino]carbamoyl]-3,3a,4,5,6,6a-hexahydro-1H-cyclopenta[c]pyrrole-2-carbonyl]propyl]propanamide], the concentration for half-maximal inhibition (IC50) in assay [1] worked out at 34 nM; in assay [2] it was 93 nM; in assay [3], 12 nM; in assay [4] it was 7 nM.

For `CC(C)(C)[C@H](NC(=O)C(Cl)Cl)C(=O)N1C[C@@H]2CCC[C@@H]2[C@H]1C(=O)NN(C[C@@H]1CCNC1=O)C(=O)[C@H](F)Cl` [Example 70, N-[(1S)-1-[(3S,3aS,6aR)-3-[[[(2R)-2-chloro-2-fluoro-acetyl]-[[(3S)-2-oxopyrrolidin-3-yl]methyl]amino]carbamoyl]-3,3a,4,5,6,6a-hexahydro-1H-cyclopenta[c]pyrrole-2-carbonyl]-2,2-dimethyl-propyl]-2,2-dichloro-acetamide], the IC50 in assay [1] was 30 nM; in assay [2], 101 nM; in assay [3], 16 nM; in assay [4], 7 nM.

In the case of `CCC(C)(C)[C@H](NC(=O)[C@@H]1CC1(F)F)C(=O)N1C[C@@H]2CCC[C@@H]2[C@H]1C(=O)NN(C[C@@H]1CCNC1=O)C(=O)[C@@H](F)Cl` [Example 152, (1S)—N-[(1S)-1-[(3S,3aS,6aR)-3-[[[(2S)-2-chloro-2-fluoro-acetyl]-[[(3S)-2-oxopyrrolidin-3-yl]methyl]amino]carbamoyl]-3,3a,4,5,6,6a-hexahydro-1H-cyclopenta[c]pyrrole-2-carbonyl]-2,2-dimethyl-butyl]-2,2-difluoro-cyclopropanecarboxamide], the concentration for half-maximal inhibition (IC50) in assay [1] was determined as 28 nM; in assay [2], 99 nM; in assay [3], 20 nM; in assay [4], 15 nM.

Take `CCC(C)(C)[C@H](NC(=O)C(F)F)C(=O)N1C[C@@H]2CCC[C@@H]2[C@H]1C(=O)NN(C[C@@H]1CCNC1=O)C(=O)[C@@H](F)Cl` [Example 153, N-[(1S)-1-[(3S,3aS,6aR)-3-[[[(2S)-2-chloro-2-fluoro-acetyl]-[[(3S)-2-oxopyrrolidin-3-yl]methyl]amino]carbamoyl]-3,3a,4,5,6,6a-hexahydro-1H-cyclopenta[c]pyrrole-2-carbonyl]-2,2-dimethyl-butyl]-2,2-difluoro-acetamide]: the IC50 in assay [1] came out at 43 nM; in assay [2], 250 nM; in assay [3] it was 15 nM; in assay [4], 12 nM.

Turning to `CC[C@H](C)[C@H](NC(=O)C(Cl)Cl)C(=O)N1C[C@@H]2CCC[C@@H]2[C@H]1C(=O)NN(C[C@@H]1CCNC1=O)C(=O)[C@H](F)Cl` [Example 49, N-[(1S,2S)-1-[(3S,3aS,6aR)-3-[[[(2R)-2-chloro-2-fluoro-acetyl]-[[(3S)-2-oxopyrrolidin-3-yl]methyl]amino]carbamoyl]-3,3a,4,5,6,6a-hexahydro-1H-cyclopenta[c]pyrrole-2-carbonyl]-2-methyl-butyl]-2,2-dichloro-acetamide], the IC50 in assay [1] was 33 nM; in assay [2], 96 nM; in assay [3], 13 nM; in assay [4] it was 7 nM.

`CC1(C)[C@@H]2[C@@H](C(=O)NN(C[C@@H]3CCNC3=O)C(=O)[C@H](F)Cl)N(C(=O)[C@H](Cc3ccccc3)NC(=O)C(F)(F)F)C[C@@H]21` [Example 20, N-[(1S)-1-benzyl-2-[(1R,2S,5S)-2-[[[(2R)-2-chloro-2-fluoro-acetyl]-[[(3S)-2-oxopyrrolidin-3-yl]methyl]amino]carbamoyl]-6,6-dimethyl-3-azabicyclo[3.1.0]hexan-3-yl]-2-oxo-ethyl]-2,2,2-trifluoro-acetamide]: the IC50 in assay [1] came out at 47 nM; in assay [2], 106 nM; in assay [3], 16 nM; in assay [4] it was 14 nM.

`CC[C@H](C)[C@H](NC(=O)[C@@H](F)Cl)C(=O)N1C[C@H]2[C@@H]([C@H]1C(=O)NN(C[C@H]1CCCNC1=O)C(=O)[C@@H](F)Cl)C2(C)C` [Example 195, (2S)-2-chloro-N-[(1S,2S)-1-[(1R,2S,5S)-2-[[[(2S)-2-chloro-2-fluoro-acetyl]-[[(3R)-2-oxo-3-piperidyl]methyl]amino]carbamoyl]-6,6-dimethyl-3-azabicyclo[3.1.0]hexane-3-carbonyl]-2-methyl-butyl]-2-fluoro-acetamide]: the half-maximal inhibitory concentration (IC50) in assay [1] was determined as 29 nM; in assay [2] it was 112 nM; in assay [3], 51 nM; in assay [4], 28 nM.

One may read the IC50 as the point on the concentration scale where inhibition reaches its midpoint. Higher therefore signals weaker potency in that assay.
